Columns and labels:
[1] = biological target: Carbonic anhydrase 12 (Homo sapiens, UniProt O43570)
[2] = biological target: Carbonic anhydrase 9 (Homo sapiens, UniProt Q16790)
[3] = biological target: Carbonic anhydrase 2 (Homo sapiens, UniProt P00918)
[4] = biological target: Carbonic anhydrase 1 (Homo sapiens, UniProt P00915)
Sequence of Carbonic anhydrase 1 (P00915 whole entry): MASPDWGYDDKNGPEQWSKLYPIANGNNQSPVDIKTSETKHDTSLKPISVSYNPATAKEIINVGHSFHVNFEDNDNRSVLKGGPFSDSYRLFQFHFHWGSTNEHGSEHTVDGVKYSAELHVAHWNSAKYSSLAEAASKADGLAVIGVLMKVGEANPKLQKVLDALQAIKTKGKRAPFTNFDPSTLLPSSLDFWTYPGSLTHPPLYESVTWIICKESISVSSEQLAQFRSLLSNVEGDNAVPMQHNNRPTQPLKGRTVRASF

Sequence of Carbonic anhydrase 12 (O43570 whole entry): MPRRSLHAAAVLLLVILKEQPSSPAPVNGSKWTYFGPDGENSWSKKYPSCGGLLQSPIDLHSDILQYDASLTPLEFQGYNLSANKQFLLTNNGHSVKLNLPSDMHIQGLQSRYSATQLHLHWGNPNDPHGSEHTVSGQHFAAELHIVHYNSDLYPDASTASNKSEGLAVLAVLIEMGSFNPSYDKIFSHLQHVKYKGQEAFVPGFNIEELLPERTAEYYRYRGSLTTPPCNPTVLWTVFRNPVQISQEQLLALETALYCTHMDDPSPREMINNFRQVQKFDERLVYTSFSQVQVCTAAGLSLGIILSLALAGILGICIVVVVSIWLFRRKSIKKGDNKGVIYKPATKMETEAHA

Row | SMILES | Ki [1] | Ki [2] | Ki [3] | Ki [4]
1 | NS(=O)(=O)c1ccc(CCNC(=S)Nc2ccc(-c3c4ccc(=O)cc-4oc4cc(O)ccc34)c(C(=O)O)c2)cc1 | 5 nM | – | – | –
2 | NS(=O)(=O)c1ccccc1N1C(=O)c2c(Br)c(Br)c(Br)c(Br)c2C1=O | 197 nM | 234 nM | 190 nM | > 10000 nM
3 | NS(=O)(=O)c1ccc(CN2C(=O)c3c(Br)c(Br)c(Br)c(Br)c3C2=O)cc1 | 12.3 nM | 12.3 nM | – | 251 nM
4 | NS(=O)(=O)c1ccc(CCN2C(=O)c3c(Br)c(Br)c(Br)c(Br)c3C2=O)cc1 | 10.2 nM | 15.9 nM | – | –

The remaining lines, values ahead:

Row | Ki [1] | Ki [2] | Ki [3] | Ki [4] | SMILES
5 | 7.5 nM | 9.4 nM | 96 nM | 770 nM | NS(=O)(=O)c1ccc(N2C(=O)c3c(Br)c(Br)c(Br)c(Br)c3C2=O)c(F)c1
6 | 6.5 nM | 8.8 nM | 47 nM | 143 nM | NS(=O)(=O)c1ccc(N2C(=O)c3c(Br)c(Br)c(Br)c(Br)c3C2=O)c(Br)c1
7 | 6.1 nM | 9.1 nM | 68 nM | 432 nM | NS(=O)(=O)c1ccc(N2C(=O)c3c(Br)c(Br)c(Br)c(Br)c3C2=O)cc1
8 | 19 nM | – | – | 340 nM | NS(=O)(=O)c1cccc(N2C(=O)c3c(Br)c(Br)c(Br)c(Br)c3C2=O)c1
9 | 5.9 nM | 8.5 nM | 55 nM | 208 nM | NS(=O)(=O)c1ccc(N2C(=O)c3c(Br)c(Br)c(Br)c(Br)c3C2=O)c(Cl)c1

Reference: ChEMBL document CHEMBL2424648, “Carbonic anhydrase inhibitors: synthesis and inhibition of the human carbonic anhydrase isoforms I, II, VII, IX and XII with benzene sulfonamides incorporating 4,5,6,7-tetrabromophthalimide moiety” (Bioorg Med Chem, 2013)
